A short description of data set [1]: pKa of basic centres (Table 1). In kind it is physicochemical.
Data set [2] addresses human serotonin transporter (Homo sapiens (Human), UniProt P31645). Kind of data set: Human SERT (serotonin transporter) uptake assay. Type of data set: cell-based. As to conditions: read-out: hSERT Ki. On the procedure:
This protocol was designed to measure inhibition of uptake by the human serotonin transporter. […] The Assay Buffer (AB) was […] and 0.02 M HEPES.
(§1) The HEK293F cells were transfected with the human serotonin transporter and frozen in 1 mL aliquots at about 1E+07 cells/mL. On the day of the experiment, the cells were removed from −80° C. or liquid nitrogen and thawed in a room temperature water bath. The cells were dilute to about 1-2E+06 with Freestyle medium. A 1 mL sample (1:2 dilution) was prepared, and the cells were counted. The cells were spun at 1100 rpm for 5 minutes, and the medium was aspirated off. The cells were resuspend in medium at 1.5E+06 cells/mL for about 60,000 cells per well. 40 μL of cells were dispensed per well in the Biocoat plates. The plates were spun at 1100 rpm for 1 minute to improve homogeneity of the cell layer and were incubated at 37° C. for a minimum of 3 hours.
12 μL of test compound (10 mM) in DMSO was added to the wells, and nomifensine was used as a control. Fluoxetine (final assay concentration of 10 μM) was used for background signal. The neurotransmitter transporter dye was prepared in AB prior to use.
(§2) Due to the proprietary nature of the dye formulation, all dye concentrations were expressed as a percentage of the vendor-recommended dye reconstitution. Thus, the above calculations were valid when both [dye] and Km were expressed in the same units (%). Compounds were tested in triplicate (n=3).

Data set [3] concerns the target human norepinephrine transporter (Homo sapiens (Human), UniProt P23975). Kind of data set: Human NET (norepinephrine transporter) uptake assay. Type of data set: cell-based. The note with it: for potency at hNET relative to the other enantiomer or epimer: comparison in words, used to assign configuration. Here is the method:
This protocol was designed to measure inhibition of uptake by the human norepinephrine transporter. […] The Assay Buffer (AB) was 1×HBSS and 0.02 M HEPES.
as §1, with “norepinephrine” for “serotonin”
(§3) 12 μL of test compound (10 mM) in DMSO was added to the wells, and nomifensine was used as a control. […] The neurotransmitter transporter dye was prepared in AB prior to use.
as §2

Data set [4] has as its target human dopamine transporter (Homo sapiens (Human), UniProt Q01959). Kind of data set: Human DAT (dopamine transporter) uptake assay. Type of data set: cell-based. As to conditions: read-out: hDAT Ki. On the procedure: This protocol was designed to measure inhibition of uptake by the human dopamine transporter. […] The Assay Buffer (AB) was 1×HBSS and 0.02 M HEPES.
as §1, with “dopamine” for “serotonin”
as §3
Due to the proprietary nature of the dye formulation, all dye concentrations were expressed as a percentage of the vendor-recommended dye reconstitution. Thus, the above calculations were valid when both [dye] and K1 were expressed in the same units (%). Compounds were tested in triplicate (n=3).

The mark [5] stands for this setting: first base, e.g., an aliphatic primary, secondary, or tertiary amine, read-out: pKa (Base 1).
Setting [6] is: second base in the same molecule (if present), read-out: pKa (Base 2).

Structures are written as SMILES. Where two headings read alike, the source gives them in different places.

By pKa is commonly meant the negative logarithm of the acid dissociation constant. The term Ki denotes a dissociation constant, usually derived from enzyme kinetics or from competition with a known ligand.

human serotonin transporter, sequence (P31645 whole entry): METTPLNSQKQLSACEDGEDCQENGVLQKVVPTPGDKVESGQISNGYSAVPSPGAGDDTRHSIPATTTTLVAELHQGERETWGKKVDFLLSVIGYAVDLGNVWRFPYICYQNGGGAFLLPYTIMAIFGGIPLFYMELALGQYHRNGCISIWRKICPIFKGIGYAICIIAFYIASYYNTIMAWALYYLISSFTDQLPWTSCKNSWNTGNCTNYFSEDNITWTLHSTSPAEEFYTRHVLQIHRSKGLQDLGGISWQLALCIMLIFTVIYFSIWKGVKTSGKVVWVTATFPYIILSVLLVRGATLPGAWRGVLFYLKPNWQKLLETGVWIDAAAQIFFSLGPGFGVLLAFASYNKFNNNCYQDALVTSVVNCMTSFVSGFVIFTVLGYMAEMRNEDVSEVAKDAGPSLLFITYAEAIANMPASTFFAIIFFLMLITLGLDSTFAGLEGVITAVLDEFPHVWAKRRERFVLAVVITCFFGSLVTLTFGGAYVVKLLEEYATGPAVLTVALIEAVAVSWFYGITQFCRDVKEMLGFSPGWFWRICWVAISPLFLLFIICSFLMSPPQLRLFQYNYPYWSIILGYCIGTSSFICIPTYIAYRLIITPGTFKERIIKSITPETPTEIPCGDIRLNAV
human norepinephrine transporter, sequence (P23975 whole entry): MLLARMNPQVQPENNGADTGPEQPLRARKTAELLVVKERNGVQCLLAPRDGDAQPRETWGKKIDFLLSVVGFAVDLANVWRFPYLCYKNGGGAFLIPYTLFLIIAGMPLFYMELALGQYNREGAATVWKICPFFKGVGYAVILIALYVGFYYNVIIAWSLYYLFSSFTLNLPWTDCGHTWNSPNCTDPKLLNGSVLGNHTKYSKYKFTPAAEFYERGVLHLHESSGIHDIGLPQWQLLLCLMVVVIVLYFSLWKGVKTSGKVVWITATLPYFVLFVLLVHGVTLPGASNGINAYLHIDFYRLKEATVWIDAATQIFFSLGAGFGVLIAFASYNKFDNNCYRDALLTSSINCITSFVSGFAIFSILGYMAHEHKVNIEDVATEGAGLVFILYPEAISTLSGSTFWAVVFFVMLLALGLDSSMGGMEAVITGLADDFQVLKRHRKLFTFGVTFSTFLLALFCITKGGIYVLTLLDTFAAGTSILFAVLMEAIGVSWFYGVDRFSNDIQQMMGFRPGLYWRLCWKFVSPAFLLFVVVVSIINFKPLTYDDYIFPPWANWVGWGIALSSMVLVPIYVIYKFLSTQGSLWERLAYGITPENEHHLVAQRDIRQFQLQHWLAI
human dopamine transporter, sequence (Q01959 whole entry): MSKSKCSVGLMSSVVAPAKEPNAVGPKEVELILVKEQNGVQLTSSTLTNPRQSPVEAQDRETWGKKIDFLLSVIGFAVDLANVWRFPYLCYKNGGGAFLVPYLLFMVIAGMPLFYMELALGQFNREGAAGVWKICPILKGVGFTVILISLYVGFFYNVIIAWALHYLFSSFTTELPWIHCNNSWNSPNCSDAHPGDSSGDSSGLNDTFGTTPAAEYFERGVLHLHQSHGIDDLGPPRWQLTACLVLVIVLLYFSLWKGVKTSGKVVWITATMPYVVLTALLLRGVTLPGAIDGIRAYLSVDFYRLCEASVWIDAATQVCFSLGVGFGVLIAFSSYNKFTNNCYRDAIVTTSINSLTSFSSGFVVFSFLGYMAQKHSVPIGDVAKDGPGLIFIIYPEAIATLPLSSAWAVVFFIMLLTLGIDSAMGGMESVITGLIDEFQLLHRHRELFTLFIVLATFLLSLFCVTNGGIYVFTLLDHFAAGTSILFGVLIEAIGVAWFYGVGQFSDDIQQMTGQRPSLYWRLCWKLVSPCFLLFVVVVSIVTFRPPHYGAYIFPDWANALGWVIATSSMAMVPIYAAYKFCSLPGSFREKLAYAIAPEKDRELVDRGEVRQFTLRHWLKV

As to `CNCC(Cc1ccccc1F)c1ccc2ccccc2c1` (racemic) [Compound 36], the pKa in data set [1] (setting [5]) turned out to be 10. In the case of `CNC[C@H](c1ccc(OC)c(C)c1)[C@H](O)c1ccccc1` (racemic) [Compound 54], the values for the Ki in data set [2], in data set [3] (read-out: hNET Ki) and in data set [4] were 2.4 nM, 4.5 nM and 971 nM, respectively. Besides, the pKa in data set [1] (setting [5]) was 10. As to `CNCC(Cc1cccnc1)c1ccc(Cl)c(Cl)c1` (racemic) [Compound 80], the inhibition constant (Ki) in data set [2] was 34.7 nM; in data set [4], 52.2 nM. Moreover, the pKa amounted to 9.6 in data set [1] (setting [5]) and 5.2 in data set [1] (setting [6]).

Consider `CNCC(Cc1ccccc1F)c1ccc2ccccc2c1` (stereo not shown) [Compound 17], for which the pKa in data set [1] (setting [5]) came to 10. Consider `CNC[C@H](c1ccc2ccccc2c1)[C@H](O)c1cccs1` [Compound 47], for which the Ki in data set [2] was found to be 2.2 nM; in data set [4] it was 15 nM. For the same compound, the pKa in data set [1] (setting [5]) stood at 9.7. Regarding `CNC[C@@H](Cc1cccnc1)c1ccc(Cl)c(Cl)c1` [Compound 59], the values for the inhibitory constant (Ki) in data set [2] and in data set [4] were 35.6 nM and 112 nM, respectively. For the same compound, the pKa in data set [1] (setting [5]) was 9.6; in data set [1] (setting [6]), 5.2. In the case of `NC[C@@H](c1ccc2ccccc2c1)[C@@H](O)c1ccccc1` [Compound 88], the pKa in data set [1] (setting [5]) stood at 8.7. Moreover, the Ki in data set [4] was 80.4 nM. For the compound `NCC(c1ccc2ccccc2c1)[C@@H](O)c1ccccc1` (stereo partly shown) [Compound 91], the pKa in data set [1] (setting [5]) was determined as 8.7. Moreover, the Ki in data set [4] is 249 nM. Regarding `CNC[C@H](Cc1cccnc1)c1ccc(Cl)c(Cl)c1` [Compound 115], the results for the Ki in data set [2] and in data set [4] were 642 nM and 127 nM, respectively. In addition, the pKa in data set [1] (setting [5]) came to 9.6; in data set [1] (setting [6]) it was 5.2.

Consider `CNC[C@H](c1ccc2ccccc2c1)[C@H](OCC(=O)N1CC[C@H](OC)C1)c1ccccc1` [Compound 131], for which the pKa in data set [1] (setting [5]) amounted to 9.6. With `NCC(Cc1ccccc1F)c1ccc2ccccc2c1` (stereo not shown) [Compound 137], the Ki in data set [2] turned out to be 31.8 nM; in data set [4], 77.7 nM. In data set [1] (setting [5]), the pKa turned out to be 9.3.

Turning to `CNC[C@H](Cc1ccccc1F)c1ccc2ccccc2c1` [Compound 138], the pKa in data set [1] (setting [5]) is 10. In the case of `CNC[C@@H](c1ccc2ccccc2c1)[C@@H](O)c1cccs1` [Compound 144], the figures for the Ki in data set [2] and in data set [4] were 10 nM and 113 nM, respectively. Also, the pKa in data set [1] (setting [5]) is 9.7.

Turning to `NC[C@@H](c1ccc2ccccc2c1)C(O)c1ccncc1Cl` (stereo partly shown) [compound 118], in data set [3], the “potency at hNET relative to the other enantiomer or epimer” value is listed as “lower potency”. Still for that read-out and setting: as for `CNC[C@@H](c1ccc(Cl)c(Cl)c1)[C@@H](O)c1cccc(SC)c1` [compound 120], the entry is “lower inhibitory activity”; as for `CNC[C@@H](c1ccc(Cl)c(Cl)c1)[C@@H](O)c1cccc(NS(=O)(=O)C(F)(F)F)c1` [compound 121], “lower potency”; as for `CNC[C@@H](c1ccc2ccccc2c1)[C@@H](O)c1cncc(OC)c1` [compound 122], “lower inhibitory activity”. Consider `CNC[C@@H](c1ccc(Cl)c(Cl)c1)[C@@H](O)c1cccc(N2CCOCC2)c1` [compound 125], for which the “potency at hNET relative to the other enantiomer or epimer” value in data set [3] is “lower inhibitory activity”.

As to `NC[C@@H](c1ccc2ccccc2c1)[C@@H](O)c1ccc(Cl)nc1` [compound 126], the “potency at hNET relative to the other enantiomer or epimer” value in data set [3] is recorded as “lower potency”. Consider `CNC[C@H](c1ccc(Cl)c(Cl)c1)[C@@H](O)c1cccc(NS(=O)(=O)C(F)(F)F)c1` [compound 127], for which the “potency at hNET relative to the other enantiomer or epimer” value in data set [3] is listed as “higher inhibitory activity”. Regarding `CNC[C@@H](c1ccc(Cl)c(Cl)c1)[C@@H](O)c1ccccc1[S+](C)[O-]` (stereo partly shown) [compound 128], in data set [3], the “potency at hNET relative to the other enantiomer or epimer” value is reported as “less potent”. On the same count and under the same terms, as for `NC[C@@H](Cc1ccccc1O)c1ccc2ccccc2c1` [compound 133], the entry is “more potent”; as for `CNC[C@H](c1ccc2ccccc2c1)[C@@H](O)c1cc(F)cc(F)c1` [compound 141], “more potent”; as for `CNC[C@@H](c1ccc2ccccc2c1)[C@H](O)c1cc(F)cc(F)c1` [compound 142], “less potent”. On to `CNC[C@H](c1ccc2ccccc2c1)[C@H](O)c1ccc2c(c1)OCCO2` [compound 143], for which the “potency at hNET relative to the other enantiomer or epimer” value in data set [3] was “higher potency”.

As to `CNCC(CCc1ccccc1)[C@@H](O)c1ccccc1` (stereo partly shown) [compound 147], the “potency at hNET relative to the other enantiomer or epimer” value in data set [3] is recorded as “lower potency”. On the same count and under the same terms, as for `CNC[C@H](c1ccc(Cl)c(Cl)c1)[C@H](O)c1cccc(I)c1` [compound 151], the entry is “higher potency”. On to `CNC[C@H](c1ccc(Cl)c(Cl)c1)[C@@H](O)c1ccccc1I` [compound 152], for which the “potency at hNET relative to the other enantiomer or epimer” value in data set [3] is recorded as “higher potency”.

Regarding `CNC[C@@H](c1ccc(Cl)c(Cl)c1)[C@@H](O)c1cccc(SC)c1` [compound 154], the “potency at hNET relative to the other enantiomer or epimer” value in data set [3] is recorded as “lower potency”.

Take `CNC[C@@H](c1ccc(Cl)c(Cl)c1)[C@@H](O)c1cccc(OC)n1` [compound 157]: the “potency at hNET relative to the other enantiomer or epimer” value in data set [3] is on record as “lower potency”.

In the case of `CCc1ccccc1[C@@H](O)[C@H](CNC)c1ccc(Cl)c(Cl)c1` [compound 158], the “potency at hNET” value in data set [3] (stated in synthesis example) is listed as 6 nM. `CCc1cccc([C@@H](O)[C@H](CNC)c2ccc(Cl)c(Cl)c2)c1` [compound 159]: in data set [3], the “potency at hNET relative to the other enantiomer or epimer” value was “more potent”. The same measure, in the same setting: under `CNC[C@H](c1ccc(Cl)c(Cl)c1)[C@H](O)c1ccccc1OC` [compound 160] stands “greater hNET potency”; under `CNC[C@H](c1ccc(Cl)c(Cl)c1)[C@@H](O)c1cccc(Br)c1` [compound 161], “more potent”; under `CNC[C@@H](c1ccc(Cl)c(Cl)c1)[C@@H](O)c1cccc(Br)c1` [compound 162], “less potent”. On the same count and under the same terms, under `CNC[C@H](c1ccc(Cl)c(Cl)c1)[C@@H](O)c1cccc(SC)c1` [compound 163] stands “more potent”; under `CNC[C@H](c1ccc(Cl)c(Cl)c1)[C@H](O)c1ccccc1I` [compound 164], “greater potency”.

Turning to `CNC[C@H](c1ccc(Cl)c(Cl)c1)[C@@H](O)c1cccc(I)c1` [compound 165], the “potency at hNET relative to the other enantiomer or epimer” value in data set [3] is reported as “higher potency”. On to `CNC[C@H](c1ccc(Cl)c(Cl)c1)[C@H](O)c1cncc(OC)c1` [compound 166], for which the “potency at hNET relative to the other enantiomer or epimer” value in data set [3] is “more potent”. The same measure, in the same setting: under `CNC[C@H](c1ccc(Cl)c(Cl)c1)[C@H](O)c1cccc(OC)n1` [compound 167] stands “higher potency”. On the same count and under the same terms, as for `CNCC(c1ccc2ccccc2c1)[C@@H](O)c1ccc(Cl)nc1` (stereo partly shown) [compound 169], the entry is “lower potency”; as for `CNC[C@@H](c1ccc(Cl)c(Cl)c1)[C@@H](O)c1cccnc1OC` [compound 171], “less potent”; as for `CNC[C@@H](c1ccc(Cl)c(Cl)c1)[C@@H](OC)c1cccc(NS(=O)(=O)C(F)(F)F)c1` [compound 172], “less potent”.

Consider `CNCCC(Oc1ccccc1OC)c1ccccc1` (stereo not shown) [compound 177], for which, in data set [2], the Ki amounted to 54.4 nM.
